Data taken from patent US20130071328A1, “Propynoic Acid Carbamoyl Methyl-Amides and Pharmaceutical Compositions and Methods Based Thereon” (UNIVERSITY OF SOUTHERN CALIFORNIA, priority 2011, published 2013).
Entries after “also recorded” stand apart in the source; their conditions may differ.

Key:
[1] = system: MDA-MB-435 xenograft; experiment: MDA-MB-435 mouse xenograft model; type: in vivo
Procedure: To investigate the in vivo efficacy of these compounds, we selected compound 2 and evaluated its anticancer activity in a nude mouse xenograft model using MDA-MB-435 cells. Animals were treated with daily intraperitoneal (i.p.) injections of DMSO in sesame oil (vehicle control) or compound 2 at 10 mg/kg for 9 days, followed by 20 mg/kg for 5 days and concluding with 40 mg/kg for 12 days. After 26 days of dosing, the drug treatment was discontinued. Mice were monitored daily for an additional 17 days, and tumors were measured twice per week. FIG. 4A summarizes the tumor volume (mean±SEM) of the treatment groups throughout the observation time.
Sixteen virgin female athymic nude (nu/nu) mice (Simonsen Laboratory Inc., Gilroy, Calif.) were used for in vivo efficacy testing. […]
Human breast cancer MDA-MB-435 cells in logarithmic phase growth from in vitro cell culture were inoculated subcutaneously on the rear flank of the mice (1.5×10^6 cells/mouse) under aseptic conditions. Tumor growth was assessed twice weekly by measuring tumor diameters with a Vernier caliper (length×width). Tumor weight was calculated according to the formula: TW (mg)=tumor volume (mm^3)=d^2×D/2, where d and D are the shortest and longest diameters, respectively. […]
Eight mice were assigned to each group and the results were expressed as the mean±SEM. […]

[2] = system: HCT116 p53^+/+ colon cancer cell line; experiment: MTT cytotoxicity assay, HCT116 p53+/+; type: cell-based; details: Homo sapiens, HCT-116, 72 h exposure
Description: (§1) The human breast cancer cell line MDA-MB-435 and the colon cancer cell line HT29 were purchased from the American Type Cell Culture (Manassas, Va.). Colon cancer cell lines HCT116 p53^+/+ and HCT116 p53^−/− were kindly provided by Dr. Bert Vogelstein (Johns Hopkins Medical Institutions, Baltimore, Md.). The human ovarian carcinoma cell line (HEY), naturally resistant to cisplatin (CDDP), was kindly provided by Dr. Louis Dubeau (USC Norris Cancer Center). The bladder cancer cell lines were kindly provided by Dr. Richard Cote (USC Keck School of Medicine). Cells were maintained as monolayer cultures in the appropriate media: RPMI-1640 (HT29, HCT116 p53^+/+, HCT116 p53^−/−, and HEY cell lines) or DMEM (MDA-MB-435 and UMUC3 cell lines) supplemented with 10% fetal bovine serum (FBS) (HyClone, Road Logan, Utah) at 37° C. in a humidified atmosphere of 5% CO2. To remove the adherent cells from the flask for subculture and counting, cells were washed with PBS without calcium or magnesium, incubated with a small volume of 1×trypsin-EDTA solution (Sigma-Aldrich, St. Louis, Mo.) for 5 min, resuspended with fresh culture medium, and centrifuged at 1200 rpm for 5 min. All experiments were performed using cells in exponential growth phase. Cells were routinely checked for Mycoplasma contamination using PlasmaTest kit (InvivoGen, San Diego, Calif.).
(§2) Cytotoxicity was assessed by MTT assay as described previously. 43 In brief, cells were seeded in 96-well microtiter plates and allowed to attach overnight. Cells were subsequently treated with continuous exposure to corresponding drugs for 72 h. At the end of treatments, an MTT solution (at a final concentration of 0.5 mg/mL) was added to each well, and cells were incubated for 4 h at 37° C. After removal of the supernatant, DMSO was added, and the absorbance was read at 570 nm. All assays were done in triplicate. The IC50 was then determined for each drug from a plot of log(drug concentration) versus percentage of cells killed.

[3] = system: HCT116 p53^−/− colon cancer cell line; experiment: MTT cytotoxicity assay, HCT116 p53-/-; type: cell-based; details: Homo sapiens, HCT-116, 72 h exposure
Description: as §1, §2

[4] = system: MDA-MB-435 cells; experiment: Mitochondrial superoxide production (MitoSOX Red); type: cell-based, human; details: IC50 or 3×IC50, 24 hours
Procedure: After drug treatments, a solution of 5 μM MitoSOX Red mitochondrial superoxide indicator (Invitrogen, Carlsbad, Calif.) was added, and cells were incubated for 10 min at 37° C. Cells were then washed three times with Hank's balanced salt solution (HBSS) to remove excess MitoSOX. After washing, cells were either observed under the fluorescence microscope or collected by trypsinization, washed twice with HBSS, and measured for superoxide production using a BD LSRII flow cytometer (BD Biosciences, San Jose, Calif., USA). Data were analyzed with the BD FACSDiva software package (BD Biosciences, San Jose, Calif., USA).

[5] = system: UMUC3 bladder cancer cell line; experiment: MTT cytotoxicity assay, UMUC3; type: cell-based; details: Homo sapiens, 72 h exposure
Description: as §1, §2

[6] = system: HEY ovarian cancer cell line; experiment: Cytotoxicity assay, HEY; type: cell-based; details: Homo sapiens; MTT, 72 h exposure (Table 2)
Description: as §1, §2

[7] = system: MDA-MB-435 cells; experiment: Apoptosis assay, annexin V/propidium iodide flow cytometry; type: cell-based, human; details: for induction of apoptosis: 24 and 48 hours
Procedure: To quantify drug-induced apoptosis, annexin V/propidium iodide staining was performed and analyzed by flow cytometry. MDA-MB-435 cells were treated with 10 μM compound 1, 2, or 4 for 24 and 48 h. After treatment, both floating and adherent cells were combined and subjected to annexin V/propidium iodide staining using an annexin V-FITC apoptosis detection kit (Oncogene Research Products, San Diego, Calif.) according to manufacturer's recommendations. Untreated control cells (48 h) were maintained in parallel to drugtreated groups. Double staining was used to distinguish between viable, early apoptotic, and necrotic or late apoptotic cells. The resulting fluorescence (FITC-A channel for green fluorescence and PE-A channel for red fluorescence) was measured by flow cytometry using a BD LSRII flow cytometer (BD Biosciences, San Jose, Calif.).

[8] = system: doxorubicin-resistant NCI/ADR-RES ovarian cancer cell line; experiment: Cytotoxicity assay, NCI/ADR-RES; type: cell-based; details: Homo sapiens, MTT, 72 h exposure (Table 2)
Procedure: as §2

[9] = system: HT29 colon cancer cell line; experiment: MTT cytotoxicity assay, HT29; type: cell-based; details: Homo sapiens, HT-29, 72 h exposure
Description: as §1, §2

[10] = system: 5637 bladder cancer cell line; experiment: MTT cytotoxicity assay, 5637; type: cell-based, human; details: for IC50: Homo sapiens, 72 h exposure
Description: as §1, §2

[11] = Pharmacokinetics study after i.p. administration; type: in vivo, mice; details: mouse, ip
Procedure: To assess the efficacy, tolerability, and pharmacokinetics of these novel compounds following i.p. administration, the pharmacokinetic profile of compounds 4 and 9 was evaluated (Table 3). Mice were treated with compounds 4 and 9 via i.p. injection and serial blood sampling was determined at indicated times after administration. The plasma concentration was determined using a validated liquid chromatography mass spectrometry (LC-MS) method where the lowest level of quantification was 1 ng/mL. One hour following i.p. administration of compounds 4 and 9, their concentrations in the blood were 344 and 6.2 ng/mL, respectively. […] The half-lives of compounds 4 and 9 via i.p. administration were determined to be approximately 3.5 and 9.3 hours, respectively, when a non-compartmental pharmacokinetics analysis was used. The favorable pharmacokinetics profile of compounds 4 and 9 is consistent with the ADMET predictions described previously.
Preliminary pharmacokinetics of compounds 4 and 9 were performed using 18 mice, each time point consisting of two mice. Mice were stratified to various doses given as an i.p. injection of compounds 4 and 9 (24 mg/kg). At the specified time points following drug administration, blood was collected with heparinized syringes. The samples were allowed to settle in 500 μL eppendorf vials and then centrifuged at 1500 rpm for 10 min. The plasma was removed, transferred into new eppendorf tube, and frozen at −80° C. until analysis.

[12] = system: MDA-MB-435 cells; experiment: Cell cycle analysis by propidium iodide flow cytometry; type: cell-based, human
Procedure: Cell cycle perturbations were analyzed by propidium iodide DNA staining. Exponentially growing MDA-MB-435 cells were treated with 5 μM compound 4 for 6, 12, and 24 h. At the end of treatment, cells were collected and washed with 1×PBS after a gentle centrifugation at 1500 rpm for 5 min. Cells were then thoroughly resuspended in 0.5 mL of PBS and fixed in 70% ethanol overnight at 4° C. Ethanol-fixed cells were centrifuged at 3000 rpm for 5 min and washed twice in PBS to remove residual ethanol. For cell cycle analysis, the pellets were resuspended in 1 mL of PBS containing 0.02 mg/mL of propidium iodide and 0.5 mg/mL of DNase-free RNase A and incubated at 37° C. for 30 min. Cell cycle profiles were obtained using a BD LSRII flow cytometer (BD Biosciences, San Jose, Calif.). Propidium iodide was excited using a 488 nm blue argon laser. Resulting fluorescence was measured using a PMT detector equipped with 550 nm long pass dichroic mirror and 575/26 bandpass filter. Data were analyzed with the ModFit LT software package (Verify Software House, Inc., Topsham, Me.).

[13] = system: panel of cancer cells; experiment: MTT cytotoxicity of compound 4 across tested cell lines (FIG. 2B); type: cell-based; details: Homo sapiens, MTT assays
Procedure: as §2

[14] = system: MDA-MB-435 breast cancer cell line; experiment: MTT cytotoxicity assay, MDA-MB-435; type: cell-based, human
Description: as §1, §2

Row | SMILES | IC50 [2] [µM] | IC50 [3] [µM] | mitochondrial superoxide production, flow cytometry [4] | IC50 [5] [µM] | IC50 [6] [µM] | percentage of late apoptotic cells ([7]; 10 μM, 48 hours) [%] | induction of apoptosis [7] | IC50 [8] [µM] | IC50 [9] [µM] | IC50 [10] [µM] | further results
1 | C#CC(=O)N(c1cccc(C(F)(F)F)c1)C(C(=O)NC1CCCC1)c1cccc(OC)c1 (stereo not drawn) [Compound 2, N-[2-(Cyclopentylamino)-1-(3-methoxyphenyl)-2-oxoethyl]-N-[3-(trifluoromethyl)phenyl]Propynamide] | > 10 | 8.8 ± 0.4 | induce significant amounts of superoxide | > 20 | 5.2 ± 3.4 | 37 | induce apoptosis | 0.2 ± 0.1 | 7.2 ± 0.2 | 0.6 ± 0.4 | tumor burden (tumor volume) ([1]; i.p. daily 10 mg/kg 9 days, 20 mg/kg 5 days, 40 mg/kg 12 days): significantly reduced tumor burden; average body weight after treatment ([1]; mean±SD, after treatment, control 28±2 g): 29 ± 2 g; induction of early apoptosis ([7]; 10 μM, 24 hours): failed to induce early apoptosis; increase in early apoptotic cells ([7]; 10 μM, 48 h): 8%
2 | C#CC(=O)N(c1ccc(-n2cnnn2)c(C)c1)C(C(=O)NC1CCCC1)c1ccccc1F (stereo not drawn) [Compound 4, N-[2-(Cyclopentylamino)-1-(2-fluorophenyl)-2-oxoethyl]-N-[3-methyl-4-(1H-tetraazol-1-yl)phenyl]Propynamide] | 6.3 ± 1.8 | 5.5 ± 0.7 | induce significant amounts of superoxide | 6.3 ± 1 | 1.5 ± 0.8 | 62 | induce apoptosis | 1 ± 0.3 | 1.8 ± 1.7 | 0.7 ± 0.5 | AUC ([11]; in vivo, 24 mg/kg): 520 ng·h/mL; Cmax ([11]; in vivo, 24 mg/kg): 344 ng/mL; Kel ([11]; in vivo, 24 mg/kg): 0.206 h⁻¹; Tmax ([11]; in vivo, 24 mg/kg): 1.0 h; half-life ([11]; in vivo, 24 mg/kg): ~3.5 h; t1/2 ([11]; in vivo, 24 mg/kg): 3.5 h; concentration at 1 h ([11]; plasma, mice, 24 mg/kg i.p., 1 hour, read-out: concentration in the blood one hour following i.p. administration): 344 ng/mL; cell cycle perturbation ([12]; 5 μM, 6, 12 and 24 hours): induced both S- and G2/M-arrest; also recorded: block cell cycle progression at both S and G2/M phases; increase in number of cells retained in G2/M phase vs untreated control ([12]; 5 μM, 24 hours): 7%; increase in number of cells retained in S phase vs untreated control ([12]; 5 μM, 24 hours): 10%; IC50 [13]: 1 to 2.5 µM; percentage of late apoptotic cells ([7]; 10 μM, 24 hours): 27%; percentage of early apoptotic cells ([7]; 10 μM, 48 hours): 24%; cytotoxic potency in MDA-MB-435 cells [14]: one of the most active compounds; cytotoxic potency in 5637 cells [10]: remarkable potency
